Measurements as given in US20240139197A1, “INHIBITION OF KDM5A FOR PROMOTING ANTIGEN PRESENTATION, INCREASING CD8+ T CELL INFILTRATION AND BOOSTING ANTI-TUMOR IMMUNE RESPONSE” (The Wistar Institute of Anatomy and Biology, priority 2022, published 2024).

Tests used:
Type in all cases: cell-based, mouse
[1] = tested on: H2-K1 in ID8 cells; experiment: H2-K1 expression by RT-qPCR; details: ID8, with IFNγ treatment
From the text: (§1) FIG. 4A-FIG. 4M show KDM5A regulates antigen processing and presentation pathway. (FIG. 4A) Experimental strategy used to identify Kdm5a direct target genes. […] (FIG. 4B) CUT&RUN tracks of the newly identified Kdm5a target gene H2-K1 for Kdm5a and H3K4me3 in ID8 cells. (FIG. 4C) Expression of H2-K1 in doxycycline-inducible shKdm5a ID8 cells, Kdm5a inhibitor CPI-455, or Kdm5a knockout cells with or without IFNγ stimulation determined by RT-qPCR. (FIG. 4D) Cell surface expression of H2-K1 in control and Kdm5a knockout ID8 cells with or without IFNy stimulation was determined by FACS analysis. (FIG. 4E) Quantification of FIG. 4D. (FIG. 4F) Cell surface expression of H2-K1 in control and doxycyclineinducible Kdm5a-knockdown ID8 cells with or without IFNγ stimulation was determined by FACS analysis. (FIG. 4G) Quantification of FIG. 4F. (FIG. 4H) Cell surface expression of H2-K1 in D8 cells treated with vehicle or CPI-455 with or without IFNγ stimulation was determined by FACS analysis. (FIG. 4I) Quantification of FIG. 4H; An isotype matched IgG was used as a negative control for all the FACS analysis. […] Data represent mean±SEM of three biological repeats; P-value was calculated by using a two-tailed Student t test except in FIG. 4L by using Pearson r analysis test and FIG. 4M by using Fisher's exact test. […]

[2] = tested on: H2-K1 on HGS2 cells; experiment: cell surface MHC class I H2-K1 by FACS, HGS2; details: HGS2, in response to IFNγ
From the text: FIG. 8A-FIG. 8K show KDM5A regulates antigen processing and presentation pathway. (FIG. 8A) Validation of Kdm5a knockout and upregulation of H3K4me3 in Kdm5a knockout ID8 cells by immunoblot. β-actin expression was used as a loading control. (FIG. 8B) GSEA KEGG enrichment analysis of differentially expressed genes (DEGs) between control and Kdm5a knockout ID8 cells. NES, normalized enrichment score. (FIG. 8C) Enrichment plot of GSEA for antigen processing and presentation pathway. […] (FIG. 8E) Expression of Kdm5a and a loading control β-actin in inducible Kdm5a knockdown HGS2 cells with or without doxycycline treatment determined by immunoblot. (FIG. 8F) Cell surface expression of H2-K1 in HGS2 cells with or without inducible Kdm5a knockdown stimulated with IFNy was determined by FACS analysis. (FIG. 8G) Quantification of FIG. 8F. (FIG. 8H) Cell surface expression of H2-K1 in HGS2 cells treated with or without CPI455 and stimulated with IFNy was determined by FACS analysis. (FIG. 8I) Quantification of FIG. 8H; (FIG. 8J) Correlation between CD8A and HLA-A or HLA-B expression based on RNA-seq analysis in the TCGA HGSOC dataset. […] Data represent mean +SEM; P values were calculated by using a two-tailed Student t test except in FIG. 8J and FIG. 8K by using Pearson r analysis and FIG. 8B and FIG. 8C by using GSEA. […]

[3] = tested on: H2-K1 gene promoter in ID8 cells; experiment: ChIP at H2-K1 gene promoter; details: ID8, IFNγ, anti-H3K4me3 ChIP
From the text: as §1

CPI-455
expression of H2-K1 [1]: upregulated | MHC class I presence on cell surface [2]: increased MHC class I presence on cell surface | association of H3K4me3 with H2-K1 gene promoter [3]: increased the association of H3K4me3
